# Source: patent publication US9440964B2, “Pesticidal compositions and processes related thereto” (Dow AgroSciences LLC, priority 2011, dated 2016)
# Where two headings read alike, the source gives them in different places.
# Legend:
# BAW (Spodoptera exigua) = test: Bioassay on Beet Armyworm (BAW), 128-well diet tray; assay type: in vivo; settings: Spodoptera exigua, 168 h, read-out: Rating BAW
# Method: (§1) Certain molecules disclosed in this document were tested against BAW and CEW using procedures described in the following examples. In the reporting of the results, the “BAW & CEW Rating Table” was used (See Table Section).
# Bioassays on BAW (Spodoptera exigua)
# (§2) Trays were covered with a clear self-adhesive cover and held at 25° C., 14:10 light-dark for five to seven days. Percent mortality was recorded for the larvae in each well; activity in the eight wells was then averaged. The results are indicated in the table entitled “Table ABC: Biological Results” (See Table Section).
# CEW (Helicoverpa zea) = test: Bioassay on Corn Earworm (CEW), 128-well diet tray; assay type: in vivo; settings: Helicoverpa zea, 168 h; for pest or weed control at 0.5 µg/cm2: 0.5 μg/cm^2 on diet, read-out: Rating CEW (*Tested at 0.5 μg/cm^2); for pest or weed control at 50 µg/cm2: read-out: Rating CEW
# Method: as §1
# Bioassays on CEW (Helicoverpa zea)
# as §2
# [1] = percent mortality, second instar larvae, 50 μg/cm^2 on diet, five to seven days
# [2] = percent mortality, second instar larvae, five to seven days
SMILES,pest or weed control at 50 µg/cm2 (BAW (Spodoptera exigua); [1]) [%],pest or weed control at 0.5 µg/cm2 (CEW (Helicoverpa zea); [2]) [%],other results
Cc1ccc(Cl)cc1N/C(S)=N/C(=O)Nc1ccc(-c2ncn(-c3ccc(OC(F)(F)F)cc3)n2)cc1 [Molecule A72],50 to 100,50 to 100,–
"Cc1cccc(C)c1N/C(=N/C(=O)Nc1ccc(-c2ncn(-c3ccc(C(F)(F)F)cc3)n2)cc1)SCOC(=O)CNC(=O)OCc1ccccc1 [Molecule A8, (Z)—((N-(2,6-Dimethylphenyl)-N′-((4-(1-(4-(trifluoromethyl)phenyl)-1H-1,2,4-triazol-3-yl)phenyl)carbamoyl)carbamimidoyl)thio)methyl 2-(((benzyloxy)carbonyl)amino)acetate]",–,–,pest or weed control at 50 µg/cm2 (BAW (Spodoptera exigua)): 50 to 100%; pest or weed control at 50 µg/cm2 (CEW (Helicoverpa zea)): 50 to 100%
Cc1cc(C)c(N2C(=O)CS/C2=N\C(=O)Nc2ccc(-c3ncn(-c4ccc(OC(F)(F)F)cc4)n3)cc2)c(C)c1 [Molecule A36],50 to 100,–,pest or weed control at 50 µg/cm2 (CEW (Helicoverpa zea); [1]): 50 to 100%
"Cc1ccccc1N/C(S)=C/C(=O)Nc1ccc(-c2ncn(-c3ccc(OC(F)(F)F)cc3)n2)cc1 [Molecule A22, 3-thioxo-3-(o-tolylamino)-N-(4-(1-(4-(trifluoromethoxy)phenyl)-1H-1,2,4-triazol-3-yl)phenyl)propanamide]",50 to 100,–,pest or weed control at 50 µg/cm2 (CEW (Helicoverpa zea); [1]): 50 to 100%
CC(C)c1ccccc1N/C(S)=N/C(=O)Nc1ccc(-c2ncn(-c3ccc(C(F)(F)C(F)(F)C(F)(F)F)cc3)n2)cc1 [Molecule A113],–,–,pest or weed control at 50 µg/cm2 (BAW (Spodoptera exigua)): 50 to 100%
CCc1cccc(C)c1N/C(S)=N/C(=O)Nc1ccc(-c2ncn(-c3ccc(OC(F)(F)F)cc3)n2)cc1 [Molecule A97],50 to 100,50 to 100,–
"CC(C)c1ccccc1N/C(S)=N/C(=O)Nc1ccc(-c2ccn(-c3ccc(OC(F)(F)F)cc3)n2)cc1 [Molecule A114, N-[[(2-isopropyllphenyl)amino]thioxomethyl]-N′-((4-(1-(4-(trifluoromethoxy)phenyl)-1H-pyrazol-3-yl)phenyl))urea]",50 to 100,50 to 100,–
Cc1ccc(Cl)cc1N1C(=O)CS/C1=N\C(=O)Nc1ccc(-c2ncn(-c3ccc(OC(F)(F)F)cc3)n2)cc1 [Molecule A76],50 to 100,50 to 100,–
CCC1CS/C(=N\C(=O)Nc2ccc(-c3ncn(-c4ccc(OC(F)(F)F)cc4)n3)cc2)N1c1c(C)cc(C)cc1C (centres unmarked) [Molecule A38],50 to 100,–,pest or weed control at 50 µg/cm2 (CEW (Helicoverpa zea); [1]): 50 to 100%
Cc1cccc(C)c1-n1c(C)cs/c1=N\C(=O)Nc1ccc(-c2ncn(-c3ccc(OC(F)(F)F)cc3)n2)cc1 [Molecule A42],0 to 50,–,–
Cc1ccc(N2C(=O)CS/C2=N\C(=O)Nc2ccc(-c3ncn(-c4ccc(OC(F)(F)F)cc4)n3)cc2)c(C(C)C)c1 [Molecule A88],50 to 100,50 to 100,–
CCCc1ccccc1N/C(S)=N/C(=O)Nc1ccc(-c2ncn(-c3ccc(OC(F)(F)F)cc3)n2)cc1 [Molecule A64],50 to 100,50 to 100,–
"N#C/C(C(=O)Nc1ccc(-c2ncn(-c3ccc(OC(F)(F)F)cc3)n2)cc1)=C(/S)Nc1ccccc1-c1ccccc1 [Molecule A27, (Z)-3-([1,1′-Biphenyl]-2-ylamino)-2-cyano-3-mercapto-N-(4-(1-(4-(trifluoromethoxy)phenyl)-1H-1,2,4-triazol-3-yl)phenyl)acrylamide]",–,–,pest or weed control at 50 µg/cm2 (CEW (Helicoverpa zea); [1]): 0 to 50%
Cc1cc(C)cc(N2C(=O)CS/C2=N\C(=O)Nc2ccc(-c3ncn(-c4ccc(OC(F)(F)F)cc4)n3)cc2)c1 [Molecule A104],–,50 to 100,–
Cc1cccc(N/C(S)=N/C(=O)Nc2ccc(-c3ncn(-c4ccc(OC(F)(F)F)cc4)n3)cc2)c1C [Molecule A71],50 to 100,–,–
CC(C)(C)c1ccccc1N1C(=O)CS/C1=N\C(=O)Nc1ccc(-c2ncn(-c3ccc(OC(F)(F)F)cc3)n2)cc1 [Molecule A95],–,50 to 100,–
O=C(/N=C1\SCC(=O)N1c1ccccc1C1CC1)Nc1ccc(-c2ncn(-c3ccc(OC(F)(F)F)cc3)n2)cc1 [Molecule A66],50 to 100,–,–
CC(C)c1ccccc1N/C(S)=N/C(=O)Nc1ccc(-c2ncn(-c3ccc(OC(F)(F)C(F)(F)F)cc3)n2)cc1 [Molecule A112],50 to 100,–,–
"CC(C)c1ccccc1N/C(S)=C(\C#N)C(=O)Nc1ccc(-c2ncn(-c3ccc(OC(F)(F)F)cc3)n2)cc1 [Molecule A25, (Z)-2-cyano-3-((2-isopropylphenyl)amino)-3-mercapto-N-(4-(1-(4-(trifluoromethoxy)phenyl)-1H-1,2,4-triazol-3-yl)phenyl)acrylamide]",–,–,pest or weed control at 50 µg/cm2 (CEW (Helicoverpa zea); [1]): 0 to 50%
